ChEMBL document CHEMBL5032530, “Discovery of Benzocyclic Sulfone Derivatives as Potent CXCR2 Antagonists for Cancer Immunotherapy” (J Med Chem, 2021)
The source made the active and inactive calls. The calls are words filed in the database; no cut-off is given here.

Assays:
PANC-1 = experiment: Cytotoxicity against human PanC-1 cells assessed as reduction in cell viability measured after 72 hrs by CCK8 assay; format: cell-based; settings: PANC-1, 72 h
[1] = Apparent volume of distribution in ICR mouse at 30 mg/kg, po measured upto 48 hrs; format: ADME, organism-based; settings: in vivo
[2] = AUC (0 to t) in ICR mouse at 3 mg/kg, iv measured upto 48 hrs; format: ADME, organism-based; parameters: route intravenous, dose 3 mg/kg, time <=48; settings: in vivo
[3] = Cmax in ICR mouse at 3 mg/kg, iv measured upto 48 hrs; format: ADME, organism-based; parameters: route intravenous, dose 3 mg/kg, time <=48; settings: in vivo
Mus musculus = experiment: Effect on granulocytic MDSCs level in mouse xenografted with […] cells at 10 to 30 mg/kg, po bid measured after 15 days by immunohistochemical analysis; format: ADME, organism-based; settings: in vivo, 360 h, dose 10-30 mg/kg, time 15 day
Panc02 [4] = experiment: Antitumour activity against mouse Panc02 cells xenografted in mouse assessed as change in CD45 expressing immune cells infiltration into tumor tissue at 10 mg/kg, po bid measured after 15 days by flow cytometry analysis (reference value: 2.3%); format: functional; settings: time 15 day
[5] = Tmax in ICR mouse at 3 mg/kg, iv measured upto 48 hrs; format: ADME, organism-based; settings: in vivo
Panc02 [6] = experiment: Antitumour activity against mouse Panc02 cells xenografted in mouse assessed as reduction in infiltration of neutrophils into tumor tissue at 3 mg/kg, po bid measured after 15 days by flow cytometry analysis; format: functional, organism-based; settings: time 15.0 day
[7] = Clearance in ICR mouse at 30 mg/kg, po measured upto 48 hrs; format: ADME, organism-based; settings: ICR, in vivo
Panc02 [8] = experiment: Antitumour activity against mouse Panc02 cells xenografted in mouse assessed as change in CD11b expressing immune cells infiltration into tumor tissue using LY6C antibody at 10 mg/kg, po bid measured after 15 days by flow cytometry analysis (reference value: 20.5%); format: functional; settings: time 15 day
Panc02 [9] = experiment: Cytotoxicity against mouse Panc02 cells assessed as reduction in cell viability measured after 72 hrs by CCK8 assay; format: cell-based; settings: panc02, 72 h
[10] = Oral bioavailability in ICR mouse at 30 mg/kg measured upto 48 hrs; format: ADME, organism-based; settings: in vivo
Neutrophil = experiment: In vivo antagonist activity at CXCR2 in carrageenan-induced C57BL/6 mouse air pouch inflammation model assessed as reduction in neutrophil infiltration into air pouch at 30 mg/kg, po bid administered after 3 days of carrageenan treatment for 3 days; format: functional, organism-based; settings: time 3.0 day
Panc02 [11] = experiment: Antitumour activity against mouse Panc02 cells xenografted in mouse assessed as change in Gr1 expressing immune cells infiltration into tumor tissue at 10 mg/kg, po bid measured after 15 days by flow cytometry analysis (reference value: 27.4%); format: functional; settings: time 15 day
Panc02 [12] = experiment: Antitumour activity against mouse Panc02 cells xenografted in mouse assessed as change in CD45 expressing immune cells infiltration into tumor tissue at 3 mg/kg, po bid measured after 15 days by flow cytometry analysis (reference value: 2.3%); format: functional; settings: time 15 day
[13] = target: T1, C-X-C chemokine receptor type 2 (Homo sapiens, UniProt P25025); experiment: Displacement of [I-125]-interleukin-8 against human recombinant CXCR2 expressed in CHO-K1 cells incubated for 60 mins by radio ligand binding assay; format: cell-based
T1 sequence (P25025 whole entry): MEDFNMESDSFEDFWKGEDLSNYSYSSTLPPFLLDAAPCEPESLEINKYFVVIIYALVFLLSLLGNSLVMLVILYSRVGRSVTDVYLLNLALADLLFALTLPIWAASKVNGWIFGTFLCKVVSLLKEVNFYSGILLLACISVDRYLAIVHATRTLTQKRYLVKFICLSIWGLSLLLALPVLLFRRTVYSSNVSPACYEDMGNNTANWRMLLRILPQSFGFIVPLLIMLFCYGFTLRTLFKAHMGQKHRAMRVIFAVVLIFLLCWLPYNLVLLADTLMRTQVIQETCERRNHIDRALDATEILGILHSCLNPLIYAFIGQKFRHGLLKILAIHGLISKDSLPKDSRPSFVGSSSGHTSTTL

[14] = Half life in ICR mouse at 30 mg/kg, po measured upto 48 hrs; format: ADME, organism-based; settings: ICR, in vivo
Panc02 [15] = experiment: Antitumour activity against mouse Panc02 cells xenografted in mouse assessed as change in CD45 expressing immune cells infiltration into tumor tissue at 3 mg/kg, po bid measured after 15 days by flow cytometry analysis (reference value: 27.4%); format: functional; settings: time 15 day
SW1990 = experiment: Cytotoxicity against human SW1990 cells assessed as reduction in cell viability measured after 72 hrs by CCK8 assay; format: cell-based; settings: SW1990, 72 h
[16] = Cmax in ICR mouse at 30 mg/kg, po measured upto 48 hrs; format: ADME, organism-based; parameters: route oral, dose 30 mg/kg, time <=48; settings: in vivo
Panc02 [17] = experiment: Antitumour activity against mouse Panc02 cells xenografted in mouse assessed as change in CD11b expressing immune cells infiltration into tumor tissue using LY6C antibody at 3 mg/kg, po bid measured after 15 days by flow cytometry analysis (reference value: 20.5%); format: functional; settings: time 15 day
Panc02 [18] = experiment: Antitumour activity against mouse Panc02 cells xenografted in mouse assessed as reduction in infiltration of neutrophils into tumor tissue at 30 mg/kg, po bid measured after 15 days by immunohistochemical analysis; format: functional, organism-based; settings: time 15.0 day
[19] = Cytotoxicity against human PBMC cells assessed as reduction in cell viability measured after 72 hrs by CCK8 assay; format: cell-based
MIA PaCa-2 = experiment: Cytotoxicity against human MIA PaCa-2 cells assessed as reduction in cell viability measured after 72 hrs by CCK8 assay; format: cell-based; settings: MIA PaCa-2, 72 h
[20] = AUC (0 to t) in ICR mouse at 30 mg/kg, po measured upto 48 hrs; format: ADME, organism-based; parameters: route oral, dose 30 mg/kg, time <=48; settings: in vivo
Panc02 [21] = experiment: Antitumour activity against mouse Panc02 cells xenografted in mouse assessed as reduction in infiltration of granulocytic MDSCs into tumor tissue at 3 mg/kg, po bid measured after 15 days by flow cytometry analysis; format: functional, organism-based; settings: time 15.0 day
Panc02 [22] = experiment: Antitumour activity against mouse Panc02 cells xenografted in mouse assessed as change in CD11b expressing immune cells infiltration into tumor tissue using LY6G antibody at 10 mg/kg, po bid measured after 15 days by flow cytometry analysis (reference value: 29.7%); format: functional; settings: time 15 day
Panc02 [23] = experiment: Antitumour activity against mouse Panc02 cells xenografted in mouse assessed as change in CD11b expressing immune cells infiltration into tumor tissue using LY6G antibody at 3 mg/kg, po bid measured after 15 days by flow cytometry analysis (reference value: 29.7%); format: functional; settings: time 15 day
[24] = Clearance in ICR mouse at 3 mg/kg, iv measured upto 48 hrs; format: ADME, organism-based; settings: in vivo
Panc02 [25] = experiment: Antitumour activity against mouse Panc02 cells xenografted in mouse assessed as tumour growth inhibition at 10 mg/kg, po bid […]; format: functional; settings: read-out: TGI
[26] = Tmax in ICR mouse at 30 mg/kg, po measured upto 48 hrs; format: ADME, organism-based; settings: in vivo
BXPC-3 = experiment: Cytotoxicity against human BxPC3 cells assessed as reduction in cell viability measured after 72 hrs by CCK8 assay; format: cell-based; settings: BXPC-3, 72 h
[27] = Apparent volume of distribution in ICR mouse at 3 mg/kg, iv measured upto 48 hrs; format: ADME, organism-based; settings: in vivo, read-out: Vz
Panc02 [28] = experiment: Antitumour activity against mouse Panc02 cells xenografted in mouse assessed as reduction in infiltration of granulocytic MDSCs into tumor tissue at 30 mg/kg, po bid measured after 15 days by immunohistochemical analysis; format: functional, organism-based; settings: time 15.0 day
[29] = target: T1, C-X-C chemokine receptor type 2; experiment: Antagonist activity at human CXCR2 expressed in HEK293 cells assessed as inhibition of CXCL8-induced beta-arrestin recruitment preincubated for 30 mins followed by addition of agonist incubated for 90 mins by beta arrestin assay; format: functional, cell-based
[30] = Half life in ICR mouse at 3 mg/kg, iv measured upto 48 hrs; format: ADME, organism-based; settings: in vivo
Panc02 [31] = experiment: Antitumour activity against mouse Panc02 cells xenografted in mouse assessed as tumour growth inhibition at 3 mg/kg, po bid […]; format: functional; settings: read-out: TGI
[32] = AUC (0 to infinity) in ICR mouse at 30 mg/kg, po measured upto 48 hrs; format: ADME, organism-based; parameters: route oral, dose 30 mg/kg, time <=48; settings: ICR, in vivo
[33] = AUC (0 to infinity) in ICR mouse at 3 mg/kg, iv measured upto 48 hrs; format: ADME, organism-based; parameters: route intravenous, dose 3 mg/kg, time <=48; settings: in vivo
Panc02 [34] = experiment: Antitumour activity against mouse Panc02 cells xenografted in mouse assessed as upregulation of infiltration of CD3+ T cell into tumor tissue treated po twice a day measured after 15 days by immunohistochemical analysis; format: functional, organism-based; settings: dose 10-30 mg/kg, time 15.0 day

Question: For `Cc1c(F)cccc1NC(=O)Nc1ccc2c(c1O)S(=O)(=O)CC=C2`, which IC50 (PANC-1) is on record?
Answer: > 10 µM

Question: And the Vz [1]?
Answer: 47.39 L/kg

Question: What about the AUC(0-t) at 48 h [2] of the same molecule?
Answer: 1510 ng·h/mL

Question: What about the Cmax [3] of the same molecule?
Answer: 5120 ng/mL

Question: What about the Activity (Mus musculus) of the same molecule?
Answer: Non-Toxic

Question: What about the Activity (Panc02 [4]) of the same molecule?
Answer: 40.2%

Question: What about the Tmax [5] of the same molecule?
Answer: 3 min

Question: What about the Activity (Panc02 [6]) of the same molecule?
Answer: Active

Question: What about the CL/F [7] of the same molecule?
Answer: 143 mL/min/kg

Question: And the Activity (Panc02 [8])?
Answer: 17.8%

Question: And the Activity (Panc02 [9])?
Answer: Non-Toxic

Question: And the bioavailability [10]?
Answer: 23.2%

Question: And the Activity (Neutrophil)?
Answer: Active

Question: And the Activity (Panc02 [11])?
Answer: 7.6%

Question: And the Activity (Panc02 [12])?
Answer: 34.9%

Question: What about the Ki [13] of the same molecule?
Answer: 0.44 µM

Question: And the half-life [14]?
Answer: 3.83 h

Question: What about the Activity (Panc02 [15]) of the same molecule?
Answer: 12.7%

Question: And the IC50 (SW1990)?
Answer: > 10 µM

Question: What about the Cmax [16] of the same molecule?
Answer: 419 ng/mL

Question: And the Activity (Panc02 [17])?
Answer: 15%

Question: And the Activity (Panc02 [18])?
Answer: Active

Question: What about the IC50 [19] of the same molecule?
Answer: > 10 µM

Question: What about the IC50 (MIA PaCa-2) of the same molecule?
Answer: > 10 µM

Question: And the AUC(0-t) at 48 h [20]?
Answer: 3510 ng·h/mL

Question: What about the Activity (Panc02 [21]) of the same molecule?
Answer: Active

Question: What about the Activity (Panc02 [22]) of the same molecule?
Answer: 8.11%

Question: What about the Activity (Panc02 [23]) of the same molecule?
Answer: 15.8%

Question: What about the clearance [24] of the same molecule?
Answer: 32.8 mL/min/kg

Question: What about the inhibition in vivo at 10 mg/kg (Panc02 [25]) of the same molecule?
Answer: 66.7%

Question: What about the Tmax [26] of the same molecule?
Answer: 3.42 h

Question: What about the IC50 (BXPC-3) of the same molecule?
Answer: > 10 µM

Question: What about the Vd [27] of the same molecule?
Answer: 9.82 L/kg

Question: And the Activity (Panc02 [28])?
Answer: Active

Question: And the IC50 [29]?
Answer: 0.034 µM

Question: What about the half-life [30] of the same molecule?
Answer: 3.39 h

Question: What about the inhibition in vivo at 3 mg/kg (Panc02 [31]) of the same molecule?
Answer: 58.2%

Question: What about the AUC(0-inf) [32] of the same molecule?
Answer: 3570 ng·h/mL

Question: What about the AUC(0-inf) [33] of the same molecule?
Answer: 1550 ng·h/mL

Question: What about the Activity (Panc02 [34]) of the same molecule?
Answer: Dose-Dependent Effect
